Measured values reported in the NIST ThermoML archive (doi:10.1021/je200609g).
± gives the expanded uncertainty stated by the source.

Conditions: 101.33 kPa, Liquid; for speed of sound: Sing-around technique in a fixed-path interferometer; for mass density: Vibrating tube method

Row | speed of sound (278.15 K) [m/s] | mass density (278.15 K) [kg/m3] | speed of sound (288.15 K) [m/s] | mass density (288.15 K) [kg/m3] | speed of sound (298.15 K) [m/s] | mass density (298.15 K) [kg/m3] | speed of sound (308.15 K) [m/s] | mass density (308.15 K) [kg/m3] | speed of sound (318.15 K) [m/s] | mass density (318.15 K) [kg/m3] | speed of sound (328.15 K) [m/s] | mass density (328.15 K) [kg/m3] | Compound
1 | 1482.2 ± 2.1 | 1400.51 ± 1.8 | 1458.3 ± 2.1 | 1392.02 ± 1.8 | 1435.6 ± 2.1 | 1383.58 ± 1.7 | 1413.2 ± 2.1 | 1375.19 ± 1.7 | 1391.3 ± 2.1 | 1366.86 ± 1.7 | 1369.7 ± 2.1 | 1358.59 ± 1.7 | CCn1cc[n+](C)c1.O=S(=O)([O-])C(F)(F)F [1-ethyl-3-methylimidazolium trifluoromethanesulfonate]
2 | 1208.5 ± 0.74 | 797.34 ± 0.12 | 1173.1 ± 0.73 | 789.22 ± 0.13 | 1138.2 ± 0.72 | 780.89 ± 0.13 | 1103.2 ± 0.71 | 772.28 ± 0.13 | 1068.1 ± 0.7 | 763.32 ± 0.14 | 1032.6 ± 0.69 | 753.95 ± 0.14 | CC(C)O [propan-2-ol]
3 | 1375 ± 0.87 | 903.71 ± 0.09 | 1325.8 ± 0.85 | 892.92 ± 0.09 | 1277.4 ± 0.83 | 882.02 ± 0.1 | 1229.6 ± 0.81 | 871 ± 0.1 | 1182.4 ± 0.8 | 859.84 ± 0.11 | – | – | C1CCOC1 [tetrahydrofuran]
